Data set [1] in a line: (§1) DNDI: Cytotoxicity against L929 mouse fibroblasts, 72 hour. In kind it is toxicity, cell-based. As to conditions: mouse, L929 mouse fibroblasts.
Another data set relates to L929. The description is as §1. In kind it is toxicity, cell-based. As to conditions: l929.
Data set [2] concerns Trypanosoma brucei. The data set is described as follows: DNDI: Inhibition of Human African Trypanosomiasis, SBRI 427, in vitro. In kind it is functional, organism-based. As to conditions: Trypanosoma brucei, SBRI 427; read-out: IC50.
Data set [3] is described as follows: in vitro. As to conditions: human, liver microsomes, CLint in vitro.
Description: DNDI: in vitro intrinsic clearance in human liver microsomes at a concentration of 1uM
Data set [4] can be described thus: DNDI: Solubility in phosphate buffered saline at pH7.4 measured by nephelometry at room temperature (NEPH-RT). In kind it is physicochemical. As to conditions: pH 7.4.
The nature of data set [5]: in vitro. As to conditions: human, liver microsomes, t (1 / 2).
Description: DNDI: half life in human liver microsomes at a concentration of 1uM
A short description of data set [6]: DNDI: Cytotoxicity against L929 mouse fibroblasts, CYTO-SP, 24 hour. The note with it: mouse, L929 mouse fibroblasts. In kind it is toxicity, cell-based.
A short description of data set [7]: DNDI: Lipophilicity measured in Chromatographic hydrophobicity index (CHI) assay, pH 7.4. Type of data set: physicochemical. The note with it: buffer.
Data set [8] relates to Trypanosoma brucei. As to the kind of experiment: DNDI: Mean survival time in days (MSD) of mice after intraperitoneal injection of Human African Trypanosomiasis (HAT), EATRO 110, in vivo at 20 mg/kg/day for 4 days. Type of data set: functional, Mus musculus.
Data set [9] in a line: in vitro. As to conditions: mouse, liver microsomes.
Description: (§2) DNDI: in vitro intrinsic clearance in mouse liver microsomes at a concentration of 1uM
Data set [10] is described as follows: in vitro. As to conditions: mouse, liver microsomes, t (1 / 2).
Description: (§3) DNDI: half life in mouse liver microsomes at a concentration of 1uM
The conditions of data set [11]: mouse, microsomes, 1 µM.
Description: as §2
For data set [12] the following is noted: mouse, microsomes, 1 µM. The source holds these as a separate data set.
Description: as §3
Data set [13] deals with T1, MDR1 (ABCB1) (Homo sapiens, UniProt P08183). As to the kind of experiment: DNDI: % of compound recovered from apical to basolateral permeability assay in MDCK cells transfected with human MDR1 after 60 mins at a concentration of 3uM in the presence of GF120918. Type of data set: ADME, cell-based, Canis lupus familiaris. As to conditions: dog, MDCK-MDR1, with GF120918 (concentration not stated).

The target of data set [14] is T1, MDR1 (ABCB1). The data set is described as follows: DNDI: Efflux ratio for permeability from basolateral to apical side to apical to basolateral side of MDCK cells transfected with human MDR1. The note with it: dog, MDCK-MDR1; read-out: Calculated Ratio. In kind it is ADME, cell-based, Canis lupus familiaris.
The target in data set [15] is T1, MDR1 (ABCB1). As to the kind of experiment: DNDI: % of compound recovered from apical to basolateral permeability assay in MDCK cells transfected with human MDR1 after 60 mins at a concentration of 3uM. In kind it is ADME, cell-based, Canis lupus familiaris. As to conditions: dog.
Data set [16] concerns the target T1, MDR1 (ABCB1). As to the kind of experiment: DNDI: Apparent permeability from apical to basolateral side of the MDCK cell transfected with human MDR1after 60 mins at a concentration of 3uM. Type of data set: ADME, cell-based, Canis lupus familiaris. The note with it: dog, MDCK-MDR1.
A short description of data set [17]: DNDI: half-life in mouse S9 microsomes at a concentration of 1uM. Type of data set: ADME, subcellular, Liver, S9 fraction.

The structures appear in SMILES notation. ≈ marks a conversion by molar mass, not a printed value.

T1 sequence (P08183 whole entry): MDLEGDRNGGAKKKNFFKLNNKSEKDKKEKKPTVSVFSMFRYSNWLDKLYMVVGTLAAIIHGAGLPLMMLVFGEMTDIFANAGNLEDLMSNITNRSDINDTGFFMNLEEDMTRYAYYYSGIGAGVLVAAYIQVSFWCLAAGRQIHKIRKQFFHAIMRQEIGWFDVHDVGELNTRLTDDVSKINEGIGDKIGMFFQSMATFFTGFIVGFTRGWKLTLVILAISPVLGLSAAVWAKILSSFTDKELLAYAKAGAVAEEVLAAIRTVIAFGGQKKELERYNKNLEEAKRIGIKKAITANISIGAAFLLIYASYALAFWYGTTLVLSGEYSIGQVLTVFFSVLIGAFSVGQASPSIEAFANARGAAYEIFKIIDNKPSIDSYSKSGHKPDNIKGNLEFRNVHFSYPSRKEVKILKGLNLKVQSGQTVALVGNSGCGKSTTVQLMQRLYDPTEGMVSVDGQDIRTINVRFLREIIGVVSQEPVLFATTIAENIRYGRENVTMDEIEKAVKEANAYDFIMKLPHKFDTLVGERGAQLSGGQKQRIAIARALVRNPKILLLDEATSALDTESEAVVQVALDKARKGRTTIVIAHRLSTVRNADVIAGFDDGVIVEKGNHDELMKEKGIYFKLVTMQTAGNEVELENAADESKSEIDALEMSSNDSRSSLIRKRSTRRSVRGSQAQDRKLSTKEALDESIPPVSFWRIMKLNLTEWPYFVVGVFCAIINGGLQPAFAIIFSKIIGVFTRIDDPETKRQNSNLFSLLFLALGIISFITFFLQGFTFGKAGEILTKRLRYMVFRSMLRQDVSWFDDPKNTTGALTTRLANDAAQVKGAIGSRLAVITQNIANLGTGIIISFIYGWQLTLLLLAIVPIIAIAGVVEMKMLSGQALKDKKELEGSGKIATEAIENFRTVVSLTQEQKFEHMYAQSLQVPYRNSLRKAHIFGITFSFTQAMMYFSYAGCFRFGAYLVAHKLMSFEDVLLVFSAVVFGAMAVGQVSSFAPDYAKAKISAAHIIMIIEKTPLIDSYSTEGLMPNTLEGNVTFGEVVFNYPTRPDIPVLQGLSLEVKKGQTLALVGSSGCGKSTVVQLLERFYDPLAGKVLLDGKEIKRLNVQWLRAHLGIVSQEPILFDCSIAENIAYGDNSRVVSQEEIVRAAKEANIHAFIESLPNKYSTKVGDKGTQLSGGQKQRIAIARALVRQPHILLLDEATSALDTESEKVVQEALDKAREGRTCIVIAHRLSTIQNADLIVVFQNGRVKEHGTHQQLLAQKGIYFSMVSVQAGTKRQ

With `CCCCc1ccc(-c2nc(CNCC(C)(C)CN(C)C)co2)cc1`, the half-inhibitory concentration (IC50) at 72 h in data set [1] is 4.92 µg/mL (≈ 14.3 µM). Besides, the IC50 amounted to 2.73 µg/mL (≈ 7.95 µM) in the data set with L929 and 1.55 µg/mL (≈ 4.51 µM) in the data set on Trypanosoma brucei [2].
For `O/N=C(\Nc1ccccc1)c1ccccc1-c1ccccc1`, the results for the microsomal CLint at 1 µM in the data set “in vitro [3]” and in “in vitro [9]” were 8 µL/min/mg and 338 µL/min/mg, respectively. Moreover, in data set [4], the kinetic solubility was 25 µM (≈ 7.21 µg/mL). Besides, in the data set on Trypanosoma brucei [2], the IC50 amounted to 4.39 µg/mL (≈ 15.2 µM). Besides, the half-life at 1 µM in “in vitro [5]” worked out at 1.87 h; in “in vitro [10]”, 3 min. The molecule also showed an IC50 at 24 h in data set [6] of 36.9 µg/mL (≈ 128 µM). This molecule also came in with a chromatographic logD in data set [7] of 4.32. In addition, the MSD in the data set on Trypanosoma brucei [8] turned out to be 4 days. This molecule yielded a CLint in vitro in data set [11] of 352 µL/min/mg. Moreover, the “t (1 / 2)” value in [12] is 2 min.
Turning to `CCCCc1ccc(-c2nc(CNCC(O)CN)co2)cc1` (stereo unspecified), 2.91 µg/mL (≈ 9.59 µM) corresponded to half-maximal inhibition in [1] (IC50 at 72 h). Moreover, the IC50 was 3.31 µg/mL (≈ 10.9 µM) in the data set with L929 and 0.6 µg/mL (≈ 1.98 µM) in the data set with Trypanosoma brucei [2].
As to `Cc1cc(NCCCn2ccnc2)n2nc(-c3cccc(F)c3)cc2n1`, the IC50 at 72 h in data set [1] was above 10 µg/mL. Also, the recovery at 1 h, 3 µM on MDR1 (ABCB1) [13] was determined as 109%; on MDR1 (ABCB1) [15] it was 100%. At MDR1 (ABCB1) [14], the efflux ratio was 0.43. Besides, the solubility (kinetic) in [4] came out at 25 µM (≈ 8.76 µg/mL). For the same molecule, the IC50 in the data set with Trypanosoma brucei [2] is above 5 µg/mL. In data set [7], this molecule displayed a chromatographic logD of 3.67. Further, the Papp A→B at 1 h, 3 µM at MDR1 (ABCB1) [16] is 30.4 ×10⁻⁶ cm/s.
For the molecule `Fc1cccc(-c2cc3nc(-c4ccccc4)cc(NCCCN4CCOCC4)n3n2)c1`, the half-maximal inhibitory concentration (IC50) at 72 h in data set [1] is above 10 µg/mL. The results for the recovery at 1 h, 3 µM at MDR1 (ABCB1) [13] and on MDR1 (ABCB1) [15] were 51% and 59%, respectively. In addition, the efflux ratio at MDR1 (ABCB1) [14] is 0.05. The molecule further showed a kinetic solubility in data set [4] of 3 µM (≈ 1.29 µg/mL). Moreover, in the data set with Trypanosoma brucei [2], the IC50 is 5 µg/mL (≈ 11.6 µM). In addition, the chromatographic logD in data set [7] was above 5.2. Also, the Papp A→B at 1 h, 3 µM at MDR1 (ABCB1) [16] was determined as 3.26 ×10⁻⁶ cm/s. This molecule also had a half-life at 1 µM in data set [17] of 4.27 h.
In data set [1], `Cc1cc(NCCCN2CCOCC2)n2nc(-c3cccc(F)c3)cc2n1` yielded an IC50 at 72 h above 10 µg/mL. The recovery at 1 h, 3 µM on MDR1 (ABCB1) [13] came to 85%; on MDR1 (ABCB1) [15] it was 91%. Moreover, the efflux ratio at MDR1 (ABCB1) [14] is 0.12. This molecule had a solubility (kinetic) in [4] of 25 µM (≈ 9.24 µg/mL). In the data set with Trypanosoma brucei [2], the IC50 is above 5 µg/mL. In data set [7], this molecule registered a chromatographic logD of 4.44. Further, the Papp A→B at 1 h, 3 µM at MDR1 (ABCB1) [16] worked out at 36.1 ×10⁻⁶ cm/s. For the same molecule, the half-life at 1 µM in [17] came to 0.583 h.
Take `CCCCc1ccc(-c2nc(CNCC(C)(C)CN)co2)cc1`: the IC50 at 72 h in [1] amounted to 1.81 µg/mL (≈ 5.74 µM). Also, the IC50 is 2.96 µg/mL (≈ 9.38 µM) with L929 and 0.39 µg/mL (≈ 1.24 µM) with Trypanosoma brucei [2].

The values above are taken from ChEMBL document CHEMBL1857833, “Screening and optimization of specific chemical series against human African Trypanosomiasis (HAT)”.
